The source of these data is patent EP4793271A1, “NEUROPROTECTIVE AGENT” (National Center of Neurology and Psychiatry, priority 2023, dated 2025).

Bounds are passed on as bounds.

Assay [1] has as its system primary cultured cells of mouse fetus-derived dorsal root ganglia (DRGs). Kind of assay: Suppression of axonal degeneration after axotomy in DRG explant culture. It counts as cell-based. Conditions: minimum concentration at which axonal degeneration was suppressed (DI 0.3 or less), 24 hours after axotomy; for minimal effective concentration: Mus musculus, read-out: Evaluation on protection against degeneration. How it is done:
The compound of the present invention was studied for its protective effect against axonal injury using primary cultured cells of mouse fetus-derived dorsal root ganglia (DRGs).
DRGs were collected from a fetus derived from an ICR mouse (13.5 days of pregnancy). DRGs were cultured using a plate coated by incubation with 0.1 mg/mL poly-L-lysine at 4°C for 24 hours or longer, washing with PBS, and then incubation with 2.5 µg/mL Cultrex Mouse Laminin I at 37°C for 4 to 6 hours.
One of DRGs collected was plated to each well of the coated 24-well plate. The DRG was cultured in a nicotinamide-free medium for neuron (supplemented with 10% FBS, 1 mM glutamine, 50 ng/mL NGF2.5S, and penicillin-streptomycin) for 24 hours at maximum from the start of culture and then cultured in a nicotinamide-free medium for neuron (supplemented with 2% MACS NeuroBrew-21, 50 ng/mL NGF2.5S, 1% Glutamax, 20 µM uridine, 20 µM 5-fluoro-2'-deoxyuridine, and penicillin-streptomycin) for 7 to 8 days.
The nicotinamide-free medium for neuron was prepared so as to have the same constituents as those of the composition published in a previously reported paper (Brewer et al., J. Neuroscience Research 35: 567-576) except for nicotinamide with reference to this composition.
The test compound is dissolved in DMSO and added to cells such that the final concentration of DMSO is 0.1% (1000-fold dilution). 10 mM, 1 mM, 100 µM, 10 µM, 1 µM, and 100 nM samples of the test compound are prepared and added at a 1000-fold dilution to cells.
Axotomy was carried out by scooping out a cell body portion of the cultured DRG with a chip for a micropipette. The test compound was added at the following concentrations (final concentration: 10 µM, 1 µM, 100 nM, 10 nM, 1 nM, and 100 pM) within 30 minutes after axotomy. The compound was evaluated for its protective effect against axonal degeneration by imaging (Leica DMIL microscope, 20× objective lens) the state of neurites 24 hours after axotomy and evaluating the degree of degeneration. The degree of degeneration was quantified using a program uniquely developed using the R language. A degeneration index (DI) was used as an indicator for the degree of degeneration, and the ratio of the area of a fragmented axon to the total area of axons was calculated as defined in the equation of Expression 2. Suppressed axonal degeneration was evaluated when the value of DI was 0.3 or less. The minimum concentration at which axonal degeneration was suppressed was determined for each compound. Degeneratioin index (DI) = (Degenerated axons)/(All axons) [formula]
The axonal protective activity was evaluated as A ≤ 0.01 µM, 0.01 µM < B ≤ 0.1 µM, and 0.1 µM < C ≤ 1 µM depending on the minimum concentration at which axonal degeneration was suppressed.

A further assay has as its target T1, hSARM1 (Homo sapiens, UniProt Q6SZW1).
T1 sequence (Q6SZW1 28-724): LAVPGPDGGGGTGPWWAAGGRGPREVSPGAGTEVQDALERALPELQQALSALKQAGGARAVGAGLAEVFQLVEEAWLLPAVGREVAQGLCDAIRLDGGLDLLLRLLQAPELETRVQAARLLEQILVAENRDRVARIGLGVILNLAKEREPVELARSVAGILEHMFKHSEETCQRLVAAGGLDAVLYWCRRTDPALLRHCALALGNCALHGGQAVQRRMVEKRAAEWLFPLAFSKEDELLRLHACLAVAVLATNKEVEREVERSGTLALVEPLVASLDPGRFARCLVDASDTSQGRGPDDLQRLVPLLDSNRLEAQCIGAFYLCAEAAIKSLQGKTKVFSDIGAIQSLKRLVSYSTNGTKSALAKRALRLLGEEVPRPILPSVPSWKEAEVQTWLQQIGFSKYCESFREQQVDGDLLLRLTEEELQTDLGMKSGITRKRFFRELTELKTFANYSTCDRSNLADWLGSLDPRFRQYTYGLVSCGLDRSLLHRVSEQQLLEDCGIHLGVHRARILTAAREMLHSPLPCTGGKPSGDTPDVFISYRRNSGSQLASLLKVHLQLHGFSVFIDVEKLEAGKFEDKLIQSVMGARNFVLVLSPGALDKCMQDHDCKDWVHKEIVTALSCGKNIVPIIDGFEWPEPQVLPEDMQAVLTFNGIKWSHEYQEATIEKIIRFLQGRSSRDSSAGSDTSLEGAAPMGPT
The assay is described as follows: Human SARM1 activity measurement in HEK293 cells transiently transfected with ΔN-hSARM1 (PC6 fluorescent probe). Details: expressed in transfected cells; host or cells: HEK293, pcDNA3 expression vector. Conditions: inhibition rate; compound 30 µM; PC6 50 µM; HEK293 cells expressing ΔN-hSARM1; approximately 48 hours from transfection; read-out: Evaluation on hSARM1 inhibitory. It counts as cell-based. How it is done: HEK293 cells cultured in a prepared medium of nicotinamide-free DMEM (Dulbecco's modified Eagle medium) supplemented with 10% FBS (BioSera), a 1% penicillin-streptomycin solution (FUJIFILM Wako Pure Chemical Corp.), 5 μM nicotinamide were inoculated at approximately 50,000 cells/well to a 96-well microplate, and the cells were cultured at 37°C under 5% CO2, transiently transfected on the next day with a pcDNA3 expression vector containing a DNA sequence (SEQ ID NO: 1) deficient in a mitochondrial targeting sequence encoded by an N-terminal 78-base sequence in cDNA encoding human sterile α- and armadillo-motif-containing protein (hSARM1) using PEI MAX(R) reagent (PolySciences Inc.), and forced to express ΔN-hSARM1 (SEQ ID NO: 2). Approximately 8 hours later, PC6, which reacts as a substrate of SARM1-specific base exchange reaction and functions as a fluorescent probe, was added thereto at a final concentration of 50 μM, and intracellular hSARM1 activity was measured (Li et al, eLife 2021 10: e67381). A compound for inhibitory activity evaluation was added at a final concentration of 30 μM at the same time with PC6, while dimethyl sulfoxide (Nacalai Tesque Inc.) was added to samples of a control group at the same time with PC6. The cells were incubated at 37°C under 5% CO2 for approximately 48 hours from transfection, followed by fluorescent signal measurement using SpectraMax M2 (Molecular Devices) (excitation: 405 nm, fluorescence: 525 nm, fluorescence cutoff: 515 nm). Results of this screening are reported as an inhibition rate (%) relative to a negative control defined as follows by using fluorescence intensity measured from a control group without transfection with ΔN-hSARM1 as a background whereas using fluorescence intensity measured from a control group transfected with ΔN-hSARM1 as the negative control. Inhibitory rate (%) = 100-(([…]-Background))/((Signalofthenegativecontrol-Background)) × 100 [formula] The nicotinamide-free medium was prepared so as to have the same composition as that of DMEM having known composition which is generally used in the art except for nicotinamide. […]

Consider `O=C(/C=C/c1cccnc1)NCCCOc1cccc(O)c1` [compound 23], for which the minimal effective concentration in assay [1] is at most 0.01 µM. Also, the inhibition at 30 µM on hSARM1 was over 75%.

On to `O=C(Cc1cccc(C(F)(F)F)c1)Nc1ccc(CNC(=O)c2cccnc2)cn1` [Compound 156], for which, in assay [1], the minimal effective concentration was at most 0.01 µM. Also, the inhibition at 30 µM at hSARM1 was over 75%.

Take `O=C(COc1ccccc1)Nc1ccc(CNC(=O)c2cccnc2)cn1` [Compound 147]: the minimal effective concentration in assay [1] is at most 0.01 µM. For the same molecule, the inhibition at 30 µM at hSARM1 is over 75%.

On to `O=C(/C=C/c1cccnc1)NCCOCCOc1ccc(CNC(=O)c2cccnc2)cc1` [compound 55], for which the minimal effective concentration in assay [1] was at most 0.01 µM. Moreover, the inhibition at 30 µM on hSARM1 was over 75%.

In the case of `O=C(CCc1ccc(OC(F)(F)F)cc1)Nc1ccc(CNC(=O)c2cccnc2)cn1` [Compound 170], in assay [1], the minimal effective concentration is at most 0.01 µM. At hSARM1, the inhibition at 30 µM was over 75%.

As to `O=C(NCCOCCOc1ccc(CNC(=O)c2cccnc2)cc1)c1cccnc1` [compound 54], the minimal effective concentration in assay [1] was at most 0.01 µM. Also, the inhibition at 30 µM at hSARM1 is over 75%.

Turning to `O=C(NCc1ccc(NC(=O)C23CC4CC(CC(C4)C2)C3)nc1)c1cccnc1` [Compound 142], in assay [1], the minimal effective concentration fell in the range of 0.01 to 0.1 µM. Besides, the inhibition at 30 µM at hSARM1 is over 75%.

Turning to `C/C(=C\C(=O)NCCOCCOc1ccc(CNC(=O)c2cccnc2)cc1)c1cccnc1` [compound 56], in assay [1], the minimal effective concentration was at most 0.01 µM. The inhibition at 30 µM at hSARM1 was over 50%.

On to `O=C(/C=C/c1cccnc1)NCCCCCCN1CCN(CCO)CC1` [compound 3], for which, in assay [1], the minimal effective concentration is at most 0.01 µM. The inhibition at 30 µM on hSARM1 is over 75%.

For the molecule `O=C(/C=C/c1cccnc1)NCCOCCOc1cccc(O)c1` [compound 26], in assay [1], the minimal effective concentration is at most 0.01 µM. Further, the inhibition at 30 µM on hSARM1 was over 75%.

Take `O=C(Nc1ccc(CCc2ccc(NC(=O)c3cccnc3)cc2)cc1)c1cccnc1` [compound 101]: the minimal effective concentration in assay [1] was at most 0.01 µM. The inhibition at 30 µM on hSARM1 was over 75%.

`O=C(/C=C/c1cccnc1)NCc1ccc(NC(=O)c2ccccc2)nc1` [compound 77]: the minimal effective concentration in assay [1] is at most 0.01 µM. The inhibition at 30 µM at hSARM1 is over 75%.

Take `COCOc1cccc(OCCCNC(=O)/C=C/c2cccnc2)c1` [compound 24]: the minimal effective concentration in assay [1] was at most 0.01 µM. Moreover, the inhibition at 30 µM on hSARM1 is over 75%.

Regarding `O=C(/C=C/c1cccnc1)NCCCCCCNC(=O)/C=C/c1cccnc1` [compound 38], the minimal effective concentration in assay [1] was at most 0.01 µM. Besides, the inhibition at 30 µM on hSARM1 is over 75%.

As for `O=C(/C=C/c1cccnc1)NCCCOc1ccc(CNC(=O)c2cccnc2)cc1` [compound 53], in assay [1], the minimal effective concentration was at most 0.01 µM. Moreover, at hSARM1, the inhibition at 30 µM is over 75%.

Consider `O=C(NCc1ccc(NC(=O)C2COC2)cc1)c1cccnc1` [compound 93], for which the minimal effective concentration in assay [1] is 0.01 to 0.1 µM. For the same molecule, on hSARM1, the inhibition at 30 µM is over 50%.

In the case of `O=C(Cc1ccccc1C(F)(F)F)Nc1ccc(CNC(=O)c2cccnc2)cn1` [Compound 155], the minimal effective concentration in assay [1] is at most 0.01 µM. Besides, at hSARM1, the inhibition at 30 µM is over 75%.

As to `O=C(/C=C/c1cccnc1)NCCCOCCOCCCNC(=O)/C=C/c1cccnc1` [compound 69], the minimal effective concentration in assay [1] is at most 0.01 µM. Besides, the inhibition at 30 µM on hSARM1 is over 75%.

In the case of `O=C(Cc1ccc(Cl)cc1)Nc1ccc(CNC(=O)c2cccnc2)cn1` [Compound 145], the minimal effective concentration in assay [1] was at most 0.01 µM. Further, the inhibition at 30 µM at hSARM1 was over 75%.

With `O=C(/C=C/c1cccnc1)NCc1ccc(NC(=O)/C=C/c2cccnc2)cc1` [compound 62], the minimal effective concentration in assay [1] is at most 0.01 µM. Moreover, on hSARM1, the inhibition at 30 µM is over 75%.

Turning to `O=C(NCCCOc1ccc(CNC(=O)c2cccnc2)cc1)c1cccnc1` [compound 52], the minimal effective concentration in assay [1] is at most 0.01 µM. Besides, at hSARM1, the inhibition at 30 µM is over 50%.

Take `O=C(/C=C/c1cccnc1)Nc1cccc(OC(=O)/C=C/c2cccnc2)c1` [compound 33]: the minimal effective concentration in assay [1] lay in the range of 0.01 to 0.1 µM. The inhibition at 30 µM at hSARM1 was over 75%.

Take `O=C(Cc1ccc(C(F)(F)F)cc1)Nc1ccc(CNC(=O)c2cccnc2)cn1` [compound 89]: the minimal effective concentration in assay [1] is at most 0.01 µM. For the same molecule, the inhibition at 30 µM at hSARM1 was over 75%.

In the case of `COCOc1cccc(OCCOCCNC(=O)/C=C/c2cccnc2)c1` [compound 29], in assay [1], the minimal effective concentration was at most 0.01 µM. The inhibition at 30 µM at hSARM1 was over 75%.

As to `O=C(/C=C/c1cccnc1)NCCCNC1CCN(C(=O)c2ccccc2)CC1` [compound 12], the minimal effective concentration in assay [1] is 0.01 to 0.1 µM. Besides, at hSARM1, the inhibition at 30 µM is over 75%.

In the case of `C/C(=C\C(=O)NCCCCCCNC(=O)/C=C(\C)c1cccnc1)c1cccnc1` [compound 42], in assay [1], the minimal effective concentration is at most 0.01 µM. Besides, the inhibition at 30 µM on hSARM1 is over 75%.

For `CCC(=O)Nc1ccc(CNC(=O)c2cccnc2)cn1` [Compound 157], the “Evaluation on protection against degeneration” value (shortened to “Evaluation on protection”) in assay [1] was “A (A ≤ 0.01 µM)”. At hSARM1, the inhibition at 30 µM was over 10%.

Regarding `NCc1ccc(C(=O)N2CCC(CCCCNC(=O)/C=C/c3cccnc3)CC2)cc1` [compound 1], the “Evaluation on protection” value in assay [1] is reported as “A (A ≤ 0.01 µM)”. Besides, the inhibition at 30 µM at hSARM1 is over 75%.

Turning to `O=C(Cc1cccnc1)NCc1ccc(NC(=O)c2ccccc2)nc1` [Compound 141], in assay [1], the “Evaluation on protection” value is “C (0.1 µM < C ≤ 1 µM)”.

With `NCCOCCOCCOCCCCCCCCNC(=O)c1cccnc1` [compound 9], the minimal effective concentration in assay [1] is at most 0.01 µM. For the same molecule, the inhibition at 30 µM on hSARM1 was over 75%.
